From patent publication US10471046B2, “Method for treating, preventing, or reducing the risk of skin infection” (Melinta Subsidiary Corp., priority 2014, dated 2019)
Converted amounts (≈) assume the structure as drawn.

Test system: S. aureus
Test: Minimum inhibitory concentrations (MICs) for S. aureus of exemplary compounds (Table 2)
Type: cell-based
Conditions: Staphylococcus aureus, minimum inhibitory concentrations for S. aureus; read-out: MICs
Procedure, shortened: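 Growth of S. aureus in media with or without compound, by broth microdilution in microtiter trays following NCCLS M7-A5 guidelines. Values are MICs in μg/mL.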

Row | MIC [µg/mL] | SMILES
1 | 4 (≈ 8.27 µM) | CC(=O)NC[C@H]1CN(c2ccc(-c3ccc(CNCC(=O)N4CCNCC4)cc3)c(F)c2)C(=O)O1 [Compound 4314, N-(3-{2-Fluoro-4′-[(2-oxo-2-piperazin-1-yl-ethylamino)-methyl]-biphenyl-4-yl}-2-oxo-oxazolidin-5-(S)-ylmethyl)-acetamide]
2 | 4 (≈ 6.85 µM) | CC(=O)NC[C@H]1CN(c2ccc(-c3ccc(CNCC(=O)N4CCN(C(=O)OC(C)(C)C)CC4)cc3)c(F)c2)C(=O)O1 [Compound 4315, 4-[2-({4′-[5-(S)-(Acetylamino-methyl)-2-oxo-oxazolidin-3-yl]-2′-fluoro-biphenyl-4-ylmethyl}-amino)-acetyl]-piperazine-1-carboxylic acid tert-butyl ester]
3 | 4 (≈ 8.26 µM) | CC(=O)NC[C@H]1CN(c2ccc(-c3ccc(CNCC(=O)N4CCOCC4)cc3)c(F)c2)C(=O)O1 [Compound 4316, N-(3-{2-Fluoro-4′-[(2-morpholin-4-yl-2-oxo-ethylamino)-methyl]-biphenyl-4-yl}-2-oxo-oxazolidin-5-(S)-ylmethyl)-acetamide]
4 | 16 (≈ 29.6 µM) | CC(=O)NC[C@H]1CN(c2ccc(-c3ccc(CNCC4CCN(C(=O)OC(C)(C)C)C4)cc3)c(F)c2)C(=O)O1 (stereo partly drawn) [Compound 4317, 3-[({4′-[5-(S)-(Acetylamino-methyl)-2-oxo-oxazolidin-3-yl]-2′-fluoro-biphenyl-4-ylmethyl}-amino)-methyl]-pyrrolidine-1-carboxylic acid tert-butyl ester]
5 | 16 (≈ 34 µM) | CC(=O)NC[C@H]1CN(c2ccc(-c3ccc(CNCCN4CCOCC4)cc3)c(F)c2)C(=O)O1 [Compound 4318, N-(3-{2-Fluoro-4′-[(2-morpholin-4-yl-ethylamino)-methyl]-biphenyl-4-yl}-2-oxo-oxazolidin-5-(S)-ylmethyl)-acetamide]
6 | 16 (≈ 37.6 µM) | CC(=O)NC[C@H]1CN(c2ccc(-c3ccc(CNC(=O)C4CC4)cc3)c(F)c2)C(=O)O1 [Compound 4319, Cyclopropanecarboxylic acid {4′-[5-(S)-(acetylamino-methyl)-2-oxo-oxazolidin-3-yl]-2′-fluoro-biphenyl-4-ylmethyl}-amide]
7 | 2 (≈ 4.54 µM) | CC(=O)NC[C@H]1CN(c2ccc(-c3ccc(CNC(=O)C4(N)CC4)cc3)c(F)c2)C(=O)O1 [Compound 4321, 1-Amino-cyclopropanecarboxylic acid {4′-[5-(S)-(acetylamino-methyl)-2-oxo-oxazolidin-3-yl]-2′-fluoro-biphenyl-4-ylmethyl}-amide]
8 | 1 (≈ 2.06 µM) | CC(=O)NC[C@H]1CN(c2ccc(-c3ccc(CNCCSc4cnn[nH]4)cc3)c(F)c2)C(=O)O1 [Compound 5001, N-[3-(2-Fluoro-4′-{[2-(3H-[1,2,3]triazol-4-ylsulfanyl)-ethylamino]-methyl}-biphenyl-4-yl)-2-oxo-oxazolidin-5-(S)-ylmethyl]-acetamide]

Second part, the compound before the results:

Row | SMILES | MIC [µg/mL]
9 | CC(=O)NC[C@H]1CN(c2ccc(-c3ccc(CN(Cc4csnn4)C(N)=O)cc3)c(F)c2)C(=O)O1 [Compound 4299, N-{3-[2-Fluoro-4′-(1-[1,2,3]thiadiazol-4-ylmethyl-ureidomethyl)-biphenyl-4-yl]-2-oxo-oxazolidin-5-(S)-ylmethyl}-acetamide] | 2 (≈ 4.01 µM)
10 | CC(=O)NC[C@H]1CN(c2ccc(-c3ccc(CNCC4CC4)cc3)c(F)c2)C(=O)O1 [Compound 4300, N-(3-{4′-[(Cyclopropylmethyl-amino)-methyl]-2-fluoro-biphenyl-4-yl}-2-oxo-oxazolidin-5-(S)-ylmethyl)-acetamide] | 4 (≈ 9.72 µM)
11 | CC(=O)NC[C@H]1CN(c2ccc(-c3ccc(CNC(=O)[C@@H]4C[C@@H](O)CN4)cc3)c(F)c2)C(=O)O1 [Compound 4301, 4-(R)-Hydroxy-pyrrolidine-2-(S)-carboxylicacid {4′-[5-(S)-(acetylamino-methyl)-2-oxo-oxazolidin-3-yl]-2′-fluoro-biphenyl-4-ylmethyl}-amide] | 8 (≈ 17 µM)
12 | CC(=O)NC[C@H]1CN(c2ccc(-c3ccc(CNC(=O)[C@@H](N)Cc4ccccn4)cc3)c(F)c2)C(=O)O1 [Compound 4302, N-{4′-[5-(S)-(Acetylamino-methyl)-2-oxo-oxazolidin-3-yl]-2′-fluoro-biphenyl-4-ylmethyl}-2-(S)-amino-3-pyridin-2-yl-propionamide] | 8 (≈ 15.8 µM)
13 | CC(=O)NC[C@H]1CN(c2ccc(-c3ccc(CNC(=O)[C@H](Cc4ccccn4)NC(=O)OC(C)(C)C)cc3)c(F)c2)C(=O)O1 [Compound 4303, [1-(S)-({4′-[5-(S)-(Acetylamino-methyl)-2-oxo-oxazolidin-3-yl]-2′-fluoro-biphenyl-4-ylmethyl}-carbamoyl)-2-pyridin-2-yl-ethyl]-carbamic acid tert-butyl ester] | 8 (≈ 13.2 µM)
14 | CC(=O)NC[C@H]1CN(c2ccc(-c3ccc(CNC(=O)C4(NC(=O)OC(C)(C)C)CC4)cc3)c(F)c2)C(=O)O1 [Compound 4304, [1-({4′-[5-(S)-(Acetylamino-methyl)-2-oxo-oxazolidin-3-yl]-2′-fluoro-biphenyl-4-ylmethyl}-carbamoyl)-cyclopropyl]-carbamic acid tert-butyl ester] | 16 (≈ 29.6 µM)
15 | CC(=O)NC[C@H]1CN(c2ccc(-c3ccc(CNC(=O)[C@@H]4C=CCN4C(=O)OC(C)(C)C)cc3)c(F)c2)C(=O)O1 [Compound 4305, 2-({4′-[5-(S)-(Acetylamino-methyl)-2-oxo-oxazolidin-3-yl]-2′-fluoro-biphenyl-4-ylmethyl}-carbamoyl)-2,5-dihydro-pyrrole-1-(S)-carboxylic acid tert-butylester] | 16 (≈ 29 µM)
16 | CC(=O)NC[C@H]1CN(c2ccc(-c3ccc(CNC(=O)[C@@H]4C=CCN4)cc3)c(F)c2)C(=O)O1 [Compound 4306, 2,5-Dihydro-1H-pyrrole-2-(S)-carboxylic acid {4′-[5-(S)-(acetylamino-methyl)-2-oxo-oxazolidin-3-yl]-2′-fluoro-biphenyl-4-ylmethyl}-amide] | 2 (≈ 4.42 µM)
17 | CC(=O)NC[C@H]1CN(c2ccc(-c3ccc(CNC(=O)[C@H](N)Cc4c[nH]c5ccccc45)cc3)c(F)c2)C(=O)O1 [Compound 4307, N-{4′-[5-(S)-(Acetylamino-methyl)-2-oxo-oxazolidin-3-yl]-2′-fluoro-biphenyl-4-ylmethyl}-2-(R)-amino-3-(1H-indol-3-yl)-propionamide] | 2 (≈ 3.68 µM)
18 | CC(=O)NC[C@H]1CN(c2ccc(-c3ccc(CNC(=O)[C@@H](Cc4c[nH]c5ccccc45)NC(=O)OC(C)(C)C)cc3)c(F)c2)C(=O)O1 [Compound 4308, [1-(R)-({4′-[5-(S)-(Acetylamino-methyl)-2-oxo-oxazolidin-3-yl]-2′-fluoro-biphenyl-4-ylmethyl}-carbamoyl)-2-(1H-indol-3-yl)-ethyl]-carbamic acid tert-butyl ester] | 128 (≈ 199 µM)
19 | CC(=O)NC[C@H]1CN(c2ccc(-c3ccc(CNC(=O)[C@@H]4CCCN4)cc3)c(F)c2)C(=O)O1 [Compound 4309, Pyrrolidine-2-(S)-carboxylic acid {4′-[5-(S)-(acetylamino-methyl)-2-oxo-oxazolidin-3-yl]-2′-fluoro-biphenyl-4-ylmethyl}-amide] | 8 (≈ 17.6 µM)
20 | CC(=O)NC[C@H]1CN(c2ccc(-c3ccc(CNC(=O)[C@@H]4C[C@@H](O)CN4C(=O)OC(C)(C)C)cc3)c(F)c2)C(=O)O1 [Compound 4311, 2-({4′-[5-(S)-(Acetylamino-methyl)-2-oxo-oxazolidin-3-yl]-2′-fluoro-biphenyl-4-ylmethyl}-carbamoyl)-4-(R)-hydroxy-pyrrolidine-1-(S)-carboxylic acid tert-butyl ester] | 16 (≈ 28 µM)
